Measurements as given in patent publication US4446141A, “Hypotensive piperidine derivatives” (priority 1978, dated 1984).
Counter-ions that a name gives are not always drawn. Like-named read-outs stand apart in the source and are kept apart here.

How the values were obtained:
male dd-strain mice = conditions: mouse, in vivo
blood pressure [1] = test: Experiment 3 Hypotensive action (maximum reduction in blood pressure); format: in vivo, Wistar-strain rats; conditions: read-out: BP: Reduction of blood pressure
blood pressure [2] = test: Experiment 6 Dosage-reaction curve, DOCA-NaCl loaded hypertensive rats; format: in vivo, DOCA-sodium chloride loaded hypertensive rats; conditions: average of five rats
Description: (§1) Experiment 6 Dosage-reaction curve: compared with betanidin
(§2) Five spontaneously hypertensive rats (16 weeks old) and five DOCA-sodium chloride loaded hypertensive rats (having been bred for 5 weeks after removing one kidney) were respectively used as one group.
(§3) As the test compounds, Compound 1 and betanidin sulfate, which is a known hypotensive agent, were used.
(§4) The test compounds were respectively dissolved in 0.3% (w/v) CMC aqueous solution and each of the resulting solutions was orally administered to the rats in a dose of 1 ml/100 g. The amounts of the solutions administered were equal per unit weight of rats and the concentrations thereof were varied according to the doses of the compounds indicated in Table 8. The maximum reduction in blood pressure after the administration was measured according to the method of tail artery plethysmography.

blood pressure [3] = test: Experiment 6 Dosage-reaction curve, spontaneously hypertensive rats; format: in vivo; conditions: SHR, 50 mg/kg oral; average of five rats
Description: as §1, §2, §3, §4

[4] = maximum reduction, oral, 5 mg per 100 g rat weight

In the case of `COc1ccc(C(OC(C)=O)C(C)N2CCC(n3c(=O)n(C(C)=O)c4ccccc43)CC2)cc1OC` (stereo not shown) [Compound 32, 1-[3-acetoxy-3-(3,4-dimethoxyphenyl)-2-propyl]-4-(3-acetyl-2-keto-1-benzimidazolinyl)-piperidine], the “Number of Death I.P.” value (male dd-strain mice) is reported as 0, the “Number of Death P.O.” value (male dd-strain mice) is reported as 0 and the inhibition in vivo at 50 mg/kg (blood pressure [1]; [4]) is reported as greater than 11%.

With `COc1ccc(C(OC(C)=O)C(C)N2CCC(n3c(=O)[nH]c4ccccc43)CC2)cc1OC` (stereo not shown) [Compound 34, 1-[3-acetoxy-3-(3,4-dimethoxyphenyl)-2-propyl]-4-(2-keto-1-benzimidazolinyl)-piperidine] the “Number of Death I.P.” value (male dd-strain mice) was 0, the “Number of Death P.O.” value (male dd-strain mice) was 0 and the inhibition in vivo at 50 mg/kg (blood pressure [1]; Rattus norvegicus, po) was greater than 11%.

In the case of `CCOC(=O)n1c(=O)n(C2CCN(CC(=O)c3ccc(OC)c(OC)c3)CC2)c2ccccc21` [Compound 35, 1-[2-oxo-2-(3,4-dimethoxyphenyl)-1-ethyl]-4-(2-keto-3-ethoxycarbonyl-1-benzimidazolinyl)-piperidine], the “Number of Death I.P.” value (male dd-strain mice) is reported as 0, the “Number of Death P.O.” value (male dd-strain mice) is reported as 0 and the inhibition in vivo at 50 mg/kg (blood pressure [1]; [4]) is reported as greater than 11%.

`O=c1[nH]c2ccccc2n1C1=CCN(CCc2ccc3c(c2)OCO3)CC1` [Compound 12, 1-[2-(3,4-methylenedioxyphenyl)-1-ethyl]-4-(2-keto-1-benzimidazolinyl)-1,2,5,6-tetrahydropyridine] was tested, and the “Number of Death I.P.” value (male dd-strain mice) was 0, the “Number of Death P.O.” value (male dd-strain mice) was 0 and the inhibition in vivo at 50 mg/kg (blood pressure [1]; [4]) was 6 to 10%.

In the case of `CCOc1nc2ccccc2n1C1CCN(CC(O)c2ccc3c(c2)OCO3)CC1` (stereo not shown) [Compound 11, 1-[2-hydroxy-2-(3,4-methylenedioxyphenyl)-1-ethyl]-4-(2-ethoxy-1-benzimidazolinyl)-piperidine], the “Number of Death I.P.” value (male dd-strain mice) is reported as 0, the “Number of Death P.O.” value (male dd-strain mice) is reported as 0 and the inhibition in vivo at 50 mg/kg (blood pressure [1]; [4]) is reported as 6 to 10%.

`CN=C(NC)NCc1ccccc1` [Betanidin sulfate, betanidin sulfate] was tested, and the “maximum reduction in blood pressure” value (blood pressure [2]; 1.0 mg/kg oral) was -25 mmHg, the “maximum reduction in blood pressure” value (blood pressure [2]; 10 mg/kg oral) was -34 mmHg and the “maximum reduction in blood pressure” value (blood pressure [2]; 50 mg/kg oral) was -58 mmHg. The “maximum reduction in blood pressure” value (blood pressure [3]) was -40 mmHg.
